{
  "source": "patent US20200129528A1",
  "about": "“METHODS FOR TREATING BLOOD PRESSURE CONDITIONS USING AMINOSTEROL COMPOSITIONS” (Enterin, Inc., priority 2018, published 2020)",
  "key": {"[1]": {"assay": "Pharmacokinetics of orally administered squalamine (ENT-01) in Stage 1", "assay_type": "in vivo, human", "conditions": "PD patients, this study", "method": "PK data were collected on the 10 patients enrolled in Stage 1 and 10 patients enrolled in Stage 2 to determine the extent of systemic absorption. In Stage 1, PK data were obtained at each visit, pre-medication, at 1, 2, 4, 8 and 24 hours (Table 10). In Stage 2, PK was measured on days 1 and 6 of the randomization period pre-medication, at 1, 2, 4 and 8 hours (Table 11).\nThe mean Cmax, Tmax and T1/2 and AUC of the squalamine ion following squalamine (ENT-01) oral dosing for Stage 1 patients. The PK analyses are only approximate, as the lower limit of the validated concentration range was 10 ng/ml; most of the measured concentrations fell below that value. The mean Cmax, Tmax and T1/2 and AUC of the squalamine ion following squalamine (ENT-01) oral dosing for Stage 2 patients. The PK analyses are only approximate, as the lower limit of the validated concentration range was 0.5 ng/ml."}, "[2]": {"system": "mice with constipation due to overexpression of human αS", "conditions": "oral; cited from earlier work"}, "[3]": {"system": "IPANs (intrinsic primary afferent neuron)", "conditions": "perfusion through lumen of isolated bowel segment; cited from earlier work"}, "[4]": {"conditions": "mice, following systemic administration; into the duodenum through the biliary tract; cited from earlier work"}, "[5]": {"conditions": "cited from earlier work"}},
  "data": [
    {"compound": "CC(C)[C@@H](CC[C@@H](C)[C@H]1CC[C@H]2[C@@H]3[C@H](O)C[C@H]4C[C@@H](NCCCNCCCCN)CC[C@]4(C)[C@H]3CC[C@]12C)OS(=O)(=O)O", "note": "[squalamine]", "values": [
      {"measurement": "systemic absorption following oral administration", "setting": "[1]", "result": "not significantly absorbed into the systemic circulation"},
      {"measurement": "effect on gastro-intestinal motility", "setting": "[2]", "result": "stimulates gastro-intestinal motility"},
      {"measurement": "effect on propulsive peristaltic contractions", "setting": "[3]", "result": "increasing the frequency of propulsive peristaltic contractions"},
      {"measurement": "route of clearance", "setting": "[4]", "result": "cleared by the liver and excreted as the intact molecule"},
      {"measurement": "drug related GI toxicology", "setting": "[5]; published clinical trials involving systemic administration", "result": "has not been reported"},
      {"measurement": "effect of intravenous administration on gastrointestinal motility", "setting": "[5]; systemic blood levels one thousand-fold greater than after oral dosing, prior studies", "result": "not associated with increased gastrointestinal motility"}
    ]}
  ]
}
